Key:
[1] = system: HR repair in U2OS cells; assay: GFP HR reporter assay, U2OS cells; format: cell-based
Procedure: FIGS. 29A-29B. […] FIG. 29A: U2OS cells were transfected with the NHEJ or HR constructs (0.25 ug and 0.5 ug respectively) and a pN1-mCherry plasmid (0.05 ug). Then cells were seeded in the presence or absence of JIB-04. Cells were analyzed by flow cytometry for GFP expression 12 h and 24 h after transfection using green-versus-red fluorescent plot. 10,000 cells were analyzed in each sample and NHEJ or HR Repair Frequency (% GFP+ cells/% mCherry+ cells) plotted. Average+/−SEM of triplicates for one of two representative experiments is shown. ***p<0.001 vs control (Kruskal-Wallis). FIG. 29B: Representative FACS traces for the analysis of NHEJ and HR shown in A.

[2] = system: H1299 NSCLC xenografts; assay: Tumor growth delay with JIB-04 and IR, H1299 xenografts; format: in vivo, mice; conditions: JIB-04 50 mg/kg oral gavage, IR 2 Gy 4 h after drug, every other day, 12 doses
Procedure: H1299 NSCLC cells were injected subcutaneously (5×10^6 cells in 100 μL) into the right posterior leg of female athymic nude mice (nu/nu, 5-6 weeks old). Treatment was initiated when the subcutaneous tumors reached an average size of 150 to 200 mm^3. Mice were treated with JIB-04 (50 mg/kg/day) by oral gavage or with vehicle (12.5% Cremophor EL, 12.5% DMSO as an aqueous suspension) as control; radiation was administered 4 hours after treatment. The treatment regimen consisted of a total of 12 doses of drug and/or ionizing radiation given every other day. Tumor growth delay and the dose enhancement factor were then determined. Body weight and general health were monitored every other day during the drug-treatment period and afterward. Standard survival criteria was applied to ensure animals including severe lethargy, 20% weight loss, tumor burden >2,000 mm^3 and difficulty breathing. Survival data was analyzed using GraphPad Prism software.

[3] = system: immortalized normal human bronchial epithelial cells HBEC3KT and HBEC30KT; assay: Clonogenic survival with IR, normal bronchial epithelial cells; format: cell-based; conditions: IC50 doses of JIB-04, 4 h prior to radiation
Procedure: Cells were serially diluted to appropriate concentrations and plated into 60-mm dish in triplicate for 4 h. Then cells were treated with the indicated drugs, and irradiated 4 hours later with graded doses of radiation for concurrent treatment or irradiated and 4 hours later the drugs added for post-treatment. All cells were irradiated at room temperature in ambient air using a 137Cs source (Mark 1-68 irradiator, JL Shepherd & Associated). Surviving colonies were stained with crystal violet approximately 10 to 14 days later and colonies formed with more than 50 cells were counted. Clonogenic fraction of irradiated cells was normalized to the plating efficiency of unirradiated controls. The data are presented as the mean±SD. The curve S=e^−(αD+βD2) was fitted to the experimental data using a least square fit algorithm using the program Sigma Plot 11.0 (Systat Software, Inc.).
To evaluate whether the effect of JIB-04 on DNA repair dynamics described above was cancer-selective, IC50 doses of JIB-04 in colony formation assays of immortalized normal human bronchial epithelial cells HBEC3KT and HBEC30KT were calculated (FIG. 27A). Then these doses of JIB-04 were used to pretreat cells 4 h prior to radiation and survival was measured. […]

[4] = system: H3K4me3 at DSBs; assay: γH2AX immunoprecipitation, H3K4me3 at DSBs; format: cell-based, Human; conditions: JIB-04 4 h, IR 20 Gy
Procedure: For Histone demethylase activity determination 10×10^6 H1299 cells were seeded in P150 plates. Next day cells were preincubated with JIB-04 for 4 h and then irradiated with 20 Gy. Media was removed from cells, washed with PBS and fixed with 3% w/v PFA, 2% w/v sucrose in PBS for 1 min. Then cells were washed, scraped into media, pelleted by centrifugation (at 500 g for 2 min) and washed with Phosphatase inhibitor 1×, 1 μM Wortmannin (WM) and protease inhibitors 1× (Sigma). Cell pellets were re-suspended in 2.5× the packed cell volume (PCV) of Nucleosome Preparation Buffer (NPB, 10 mM HEPES [pH 7.9], 10 mM KCl, 1.0 mM CaCl2, 1.5 mM MgCl2, 0.34 M sucrose, 10% glycerol, 1 mM DTT, 0.1% Triton X-100) containing Phosphatase inhibitor, 1 μM Wortmannin (WM) and protease inhibitors (Sigma) and 100 U ml-1 micrococcal nuclease (MNase) and incubated at […] for 45 min (note: WM is required to block in vitro DNA-PK/ATM activation by MNase-produced DSBs). An equal volume of Nucleosome Solubilization Buffer (NSB=Nucleosome preparation buffer+2% [v/v] NP-40, 2% [v/v] Triton X-100, 600 mM NaCl) was then added. Samples were then vortexed, sonicated briefly and centrifuged at 10,000 rpm for 10 min. […] Protein levels on samples were quantified and equal amounts of protein run on 4-12% SDS acrylamide gels. […] Quantification was done using the using ImageJ software (National Institute of Health, NIH)

Clc1ccc(N/N=C(\c2ccccc2)c2ccccn2)nc1 [JIB-04]
HR repair [1]: inhibits HR repair | survival of tumor bearing mice, JIB-04 with IR [2]: survived significantly longer | tumor growth, JIB-04 with IR [2]: synergistic robust inhibition of tumor growth | radiosensitization (clonogenic survival) [3]: did not radiosensitize | H3K4me3 at sites of DNA damage marked by γH2AX [4]: increased H3K4me3
